# Laboratory results reported in patent US7579356B2, “Thia-tetraazaacenaphthylene kinase inhibitors” (Janssen Pharmaceutica NV, priority 2005, dated 2009).
# Columns and labels:
# [1] = system: HCT-116 colon carcinoma; assay: Cell Proliferation Inhibition Assay, HCT-116 (14C-thymidine); assay type: cell-based; details: Homo sapiens, HCT-116 cell proliferation
# Text: (§1) Cell Proliferation Inhibition Assay
# (§2) The ability of a test compound to inhibit unregulated cell proliferation may be determined by measuring incorporation of ^14C-labelled thymidine into newly synthesized DNA within cell lines derived from carcinomas originating from several tissues. Accordingly, the effect of a test compound on proliferation of cells with a variety of phenotypes may be determined.
# (§3) Carcinoma cell lines used include the HeLa cervical adenocarcinoma from the American Type Culture Collection (ATCC Cat. #CCL2), A375 malignant melanoma (ATCC Cat. #CRL-1619), HCT-116 colon carcinoma (ATCC Cat. #CCL-247), SKBR3 breast carcinoma (ATCC Cat. #HTB-30) and BT474 breast carcinoma (ATCC Cat. #HTB-20).
# (§4) The carcinoma cells were trypsinized and counted. The cells (3000-8000 count) were added to each well of a 96-well CytoStar tissue culture treated scintillating microplate (Amersham #RPNQ0160) in complete medium (100 μL) and the plate was then incubated in complete medium for 24 hrs at 37° C. in an inert atmosphere containing 5% CO2.
# (§5) Test compound (1 μL) in 100% DMSO was added to the plate test-wells with DMSO only added to control-wells. The plate was incubated in complete medium for a second 24 hr period at 37° C. in an atmosphere containing 5% CO2.
# (§6) An aliquot of a solution of Methyl ^14C-thymidine (56 mC/mmol) (NEN #NEC568 or AMersham #CFA532) and complete medium (20 uL to provide 0.2 μCl/well) was then added to each well and the plate was incubated for a third 24 hr period at 37° C. in an atmosphere containing 5% CO2.
# (§7) The plate contents were then discarded, the plate washed twice with PBS (200 μL) and then PBS (200 μL) was added to each well. The plate was sealed and the degree of methyl ^14C-thymidine incorporation was quantified on a Packard Top Count.
# (§8) Cell proliferation of the Hela cell line was measured using the ATP-Lite method as described in the ATP Lite Kit (Perkin-Elmer Kit Number 6106941) or the C^14 method as described above. Cell proliferation of the other cell lines was measured using the C^14 method.
# [2] = system: A375 malignant melanoma; assay: Cell Proliferation Inhibition Assay, A375 (14C-thymidine); assay type: cell-based; details: Homo sapiens, A-375
# Text: as §1, §2, §3, §4, §5, §6, §7, §8
# [3] = molecular target: T1, EGFR (Homo sapiens, UniProt P00533); assay: EGFR Kinase Assay; assay type: biochemical; details: for IC50: GST-EGFR, ATP 5 μM; for inhibition at 2 µM: test concentration of 2 μM, compounds without an IC50, read-out: EGFR inhibition in percent
# T1 construct: The intracellular portion of EGFR started at nucleotide 2189 (corresponding to amino acid 667) and ended at the termination codon; made in house; host or cells: Sf9 insect cells (baculovirus)
# In short: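 Potency came from triplicate 16-point half-log titrations starting at 200 uM, with IC50 fitted from % inhibition against log concentration, or % inhibition at 2 μM otherwise. Reaction: Sf9-made GST–EGFR cytoplasmic region (aa 667 onward), biotin-polyGluTyr, 5 μM ATP with 33P tracer, pH 8.0 Tris/Mg/vanadate/DTT, 30 °C for 1 h; captured on streptavidin Flashplates and counted.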
# [4] = system: HeLa cervical adenocarcinoma; assay: Cell Proliferation Inhibition Assay, Hela (C14 method); assay type: cell-based; details: Homo sapiens, Table 7
# Text: as §1, §2, §3, §4, §5, §6, §7, §8
# T1 sequence (P00533 669-1210 limits assumed): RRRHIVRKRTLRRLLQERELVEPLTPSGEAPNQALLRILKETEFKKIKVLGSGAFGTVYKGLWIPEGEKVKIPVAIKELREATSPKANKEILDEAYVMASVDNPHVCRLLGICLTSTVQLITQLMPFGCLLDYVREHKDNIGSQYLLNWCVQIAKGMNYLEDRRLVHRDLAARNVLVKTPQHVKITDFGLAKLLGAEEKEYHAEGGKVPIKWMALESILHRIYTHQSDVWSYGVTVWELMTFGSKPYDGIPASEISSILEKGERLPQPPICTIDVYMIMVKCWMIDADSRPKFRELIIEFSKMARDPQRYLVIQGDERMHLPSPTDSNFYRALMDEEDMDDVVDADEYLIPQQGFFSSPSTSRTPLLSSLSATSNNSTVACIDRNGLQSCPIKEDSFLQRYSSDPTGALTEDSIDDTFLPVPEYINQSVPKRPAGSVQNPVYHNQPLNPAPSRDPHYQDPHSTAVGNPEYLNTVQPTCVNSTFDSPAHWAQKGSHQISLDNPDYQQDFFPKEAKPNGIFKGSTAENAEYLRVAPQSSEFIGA
SMILES,IC50 [3],inhibition at 2 µM [3],further results
"O=C(Nc1ccc(CN2CCOCC2)cc1)c1sc2ncnc3c2c1NC(=O)N3c1cccc(Br)c1 [Cpd 36, 5-(3-bromo-phenyl)-4-oxo-4,5-dihydro-3H-1-thia-3,5,6,8-tetraaza-acenaphthylene-2-carboxylic acid (4-morpholin-4-ylmethyl-phenyl)-amide]",184 nM,–,IC50 [1]: 67900 nM; IC50 [2]: 10000 nM; IC50 [4]: ≥ 10000 nM
"O=C(O)c1sc2ncnc3c2c1NC(=O)N3c1ccc(OCc2ccccn2)c(Cl)c1 [Cpd 38, 5-[3-chloro-4-(pyridin-2-ylmethoxy)-phenyl]-4-oxo-4,5-dihydro-3H-1-thia-3,5,6,8-tetraaza-acenaphthylene-2-carboxylic acid]",920 nM,–,IC50 [1]: 100000 nM; IC50 [2]: 100000 nM; IC50 [4]: ≥ 100000 nM
"COc1cc(N2C(=O)Nc3c(C(=O)Nc4ccc(CN5CCCC5)cc4)sc4ncnc2c34)c(Cl)cc1Cl [Cpd 43, 5-(2,4-dichloro-5-methoxy-phenyl)-4-oxo-4,5-dihydro-3H-1-thia-3,5,6,8-tetraaza-acenaphthylene-2-carboxylic acid (4-pyrrolidin-1-ylmethyl-phenyl)-amide]",–,47%,–
"COc1ccc(NC(=O)c2sc3ncnc4c3c2NC(=O)N4c2ccc(OCc3ccccn3)c(Cl)c2)cc1OC [Cpd 48, 5-[3-chloro-4-(pyridin-2-ylmethoxy)-phenyl]-4-oxo-4,5-dihydro-3H-1-thia-3,5,6,8-tetraaza-acenaphthylene-2-carboxylic acid (3,4-dimethoxy-phenyl)-amide]",61 nM,–,IC50 [1]: 30400 nM; IC50 [2]: 17200 nM; IC50 [4]: ≥ 10000 nM
"COc1ccc(Cl)c(N2C(=O)Nc3c(C(=O)Nc4ccc(OC)c(OC)c4)sc4ncnc2c34)c1 [Cpd 49, 5-(2-chloro-5-methoxy-phenyl)-4-oxo-4,5-dihydro-3H-1-thia-3,5,6,8-tetraaza-acenaphthylene-2-carboxylic acid (3,4-dimethoxy-phenyl)-amide]",–,25%,–
"COc1ccc(Cl)c(N2C(=O)Nc3c(C(=O)Nc4ccc(OCCN5CCOCC5)c(OC)c4)sc4ncnc2c34)c1 [Cpd 50, 5-(2-chloro-5-methoxy-phenyl)-4-oxo-4,5-dihydro-3H-1-thia-3,5,6,8-tetraaza-acenaphthylene-2-carboxylic acid [3-methoxy-4-(2-morpholin-4-yl-ethoxy)-phenyl]-amide]",–,30%,–
"COc1ccc(Cl)c(N2C(=O)Nc3c(C(=O)Nc4ccc(CN5CCOCC5)cc4)sc4ncnc2c34)c1 [Cpd 51, 5-(2-chloro-5-methoxy-phenyl)-4-oxo-4,5-dihydro-3H-1-thia-3,5,6,8-tetraaza-acenaphthylene-2-carboxylic acid (4-morpholin-4-ylmethyl-phenyl)-amide]",–,53%,–
"COC(=O)c1sc2ncnc3c2c1NC(=O)N3c1c(Cl)ccc2c1OCO2 [Cpd 54, 5-(5-chloro-benzo[1,3]dioxol-4-yl)-4-oxo-4,5-dihydro-3H-1-thia-3,5,6,8-tetraaza-acenaphthylene-2-carboxylic acid methyl ester]",–,25%,–
COc1cc(N2C(=O)Nc3c(C(=O)Nc4ccc(CN5CCN(C)CC5)cc4)sc4ncnc2c34)c(Cl)cc1Cl [Cpd 60],–,29%,–
"O=C(Nc1ccc(CN2CCOCC2)cc1)c1sc2ncnc3c2c1NC(=O)N3c1c(Cl)ccc2c1OCO2 [Cpd 62, 5-(5-chloro-benzo[1,3]dioxol-4-yl)-4-oxo-4,5-dihydro-3H-1-thia-3,5,6,8-tetraaza-acenaphthylene-2-carboxylic acid (4-morpholin-4-ylmethyl-phenyl)-amide]",356 nM,–,–
"O=C(Nc1ccc(NCCCN2CCOCC2)nc1)c1sc2ncnc3c2c1NC(=O)N3c1cccc(Br)c1 [Cpd 64, 5-(3-bromo-phenyl)-4-oxo-4,5-dihydro-3H-1-thia-3,5,6,8-tetraaza-acenaphthylene-2-carboxylic acid [6-(3-morpholin-4-yl-propylamino)-pyridin-3-yl]-amide]",159 nM,–,–
"O=C(Nc1ccc(CN2CCCCC2)cc1)c1sc2ncnc3c2c1NC(=O)N3c1ccc(OCc2ccccn2)c(Cl)c1 [Cpd 89, 5-[3-chloro-4-(pyridin-2-ylmethoxy)-phenyl]-4-oxo-4,5-dihydro-3H-1-thia-3,5,6,8-tetraaza-acenaphthylene-2-carboxylic acid (4-piperidin-1-ylmethyl-phenyl)-amide]",34 nM,–,–
"CN1CCN(Cc2ccc(NC(=O)c3sc4ncnc5c4c3NC(=O)N5c3ccc(OCc4ccccn4)c(Cl)c3)cc2)CC1 [Cpd 90, 5-[3-chloro-4-(pyridin-2-ylmethoxy)-phenyl]-4-oxo-4,5-dihydro-3H-1-thia-3,5,6,8-tetraaza-acenaphthylene-2-carboxylic acid [4-(4-methyl-piperazin-1-ylmethyl)-phenyl]-amide]",112 nM,–,–
"O=C(Nc1ccc(CN2CCCCC2)cc1)c1sc2ncnc3c2c1NC(=O)N3c1ccc(Oc2ccccc2)cc1 [Cpd 96, 4-oxo-5-(4-phenoxy-phenyl)-4,5-dihydro-3H-1-thia-3,5,6,8-tetraaza-acenaphthylene-2-carboxylic acid (4-piperidin-1-ylmethyl-phenyl)-amide]",10 nM,–,–
"O=C(Nc1ccc(CN2CCOCC2)cc1)c1sc2ncnc3c2c1NC(=O)N3c1ccc(Oc2ccccc2)cc1 [Cpd 97, 4-oxo-5-(4-phenoxy-phenyl)-4,5-dihydro-3H-1-thia-3,5,6,8-tetraaza-acenaphthylene-2-carboxylic acid (4-morpholin-4-ylmethyl-phenyl)-amide]",13 nM,–,–
"CN1CCN(Cc2ccc(NC(=O)c3sc4ncnc5c4c3NC(=O)N5c3ccc(Oc4ccccc4)cc3)cc2)CC1 [Cpd 98, 4-oxo-5-(4-phenoxy-phenyl)-4,5-dihydro-3H-1-thia-3,5,6,8-tetraaza-acenaphthylene-2-carboxylic acid [4-(4-methyl-piperazin-1-ylmethyl)-phenyl]-amide]",22 nM,–,–
"COc1cc(NC(=O)c2sc3ncnc4c3c2NC(=O)N4c2ccc(Oc3ccccc3)cc2)ccc1OCCN1CCCCC1 [Cpd 100, 4-oxo-5-(4-phenoxy-phenyl)-4,5-dihydro-3H-1-thia-3,5,6,8-tetraaza-acenaphthylene-2-carboxylic acid [3-methoxy-4-(2-piperidin-1-yl-ethoxy)-phenyl]-amide]",15 nM,–,–
"O=C(Nc1ccc(CN2CCOCC2)cc1)c1sc2ncnc3c2c1NC(=O)N3c1c(Cl)cccc1Cl [Cpd 104, 5-(2,6-dichloro-phenyl)-4-oxo-4,5-dihydro-3H-1-thia-3,5,6,8-tetraaza-acenaphthylene-2-carboxylic acid (4-morpholin-4-ylmethyl-phenyl)-amide]",–,41%,–
"O=C(Nc1ccc(CN2CCOCC2)cc1)c1sc2ncnc3c2c1NC(=O)N3c1ccc(Oc2ccccc2)c(F)c1 [Cpd 113, 5-(3-fluoro-4-phenoxy-phenyl)-4-oxo-4,5-dihydro-3H-1-thia-3,5,6,8-tetraaza-acenaphthylene-2-carboxylic acid (4-morpholin-4-ylmethyl-phenyl)-amide]",21 nM,–,–
"O=C(Nc1ccc(CN2CCOCC2)cc1)c1sc2ncnc3c2c1NC(=O)N3c1ccc(N2CCOCC2)cc1 [Cpd 123, 5-(4-morpholin-4-yl-phenyl)-4-oxo-4,5-dihydro-3H-1-thia-3,5,6,8-tetraaza-acenaphthylene-2-carboxylic acid (4-morpholin-4-ylmethyl-phenyl)-amide]",–,11%,–
"O=C(Nc1ccc(CN2CCCCC2)cc1)c1sc2ncnc3c2c1NC(=O)N3c1ccc(Sc2ccccc2)cc1 [Cpd 169, 4-oxo-5-(4-phenylsulfanyl-phenyl)-4,5-dihydro-3H-1-thia-3,5,6,8-tetraaza-acenaphthylene-2-carboxylic acid (4-piperidin-1-ylmethyl-phenyl)-amide]",29 nM,–,–
"O=C(Nc1ccc(CN2CCOCC2)cc1)c1sc2ncnc3c2c1NC(=O)N3c1ccc(Sc2ccccc2)cc1 [Cpd 178, 4-oxo-5-(4-phenylsulfanyl-phenyl)-4,5-dihydro-3H-1-thia-3,5,6,8-tetraaza-acenaphthylene-2-carboxylic acid (4-morpholin-4-ylmethyl-phenyl)-amide]",77 nM,–,–
